Measurements: patent US20150079207A1, “Method for manufacturing Smilax China L root extract having increased active ingredients and beverage composition containing the extract fordetoxification” (priority 2013, published 2015)

Tests used:
Assay type in all cases: cell-based
HepG2 cells [1] = experiment: Inhibition of formation of oxidatively damaged adducts caused by alcohol (DCFH-DA assay); conditions: 50, 100, 250 μM 2 h, then ethanol at IC50 24 h
Description: The DCFH-DA assay was generally described with reference to Evaluation Example 3.
(§1) Thereafter, the experimental groups and the control were treated with ethanol at an IC50 concentration, and cultured for 24 hours. Then, trypsin-EDTA was divided, and the cells were detached, and treated with a 5 μM DCFH-DA reagent. After 30 minutes, the fluorescence was measured at an excitation wavelength of 488 nm and an emission wavelength of 525 nm using a multi-microplate reader (Thermo scientific).

HepG2 cells [2] = experiment: Conversion rate of nicotine into cotinine (cotinine quantitative assay); conditions: HepG2 after 1 mM nicotine; 50, 100, 250 μM (mixture 50, 100 μM); 10-120 min
Description: HepG2 (passage #99-100) cells kindly provided from the Korean Cell Line Bank were sub-cultured, divided into a 96 well plate, and then cultured under conditions of 5% CO2 and 37° C. until the cells reached 100% confluence, and the medium was removed. Thereafter, the HepG2 cells were cultured for a day in a medium containing 1 mM nicotine. […] Subsequently, the cultured cells were dividedly treated with trypsin-EDTA, and detached, and centrifuged to collect a cell pellet. The cell pellet was suspended in 100 μl of PBS, and homogenated for 30 seconds using an ultrasonicator. 100 μl of a 4M sodium acetate buffer (pH 4.7), 40 μl of 1.5M potassium cyanide, 40 μl of 0.4M chloramine T, and 200 μl of 78 mM barbituric acid (in acetone/water (50/50)) were sequentially added to the homogenated cells, mixed for 10 seconds, and then reacted at room temperature for 15 minutes. Then, 40 μl of 1M sodium metabisulfite was added to the reaction mixture to stop the reaction. Then, the reaction mixture was measured for absorbance at a wavelength of 490 nm using a multi-microplate reader (Thermo scientific), and the absorbance of the reaction mixture was quantified by comparison to the standard curve of a cotinine sample.

HepG2 cells [3] = experiment: Protective effect on hepatotoxicity caused by alcohol (MTT assay); conditions: 50, 100, 250 μM 2 h, then ethanol at IC50 24 h
Description: The MTT assay was generally described with reference to Evaluation Example 2.
Thereafter, the experimental groups and the control were treated with an aqueous solution of ethanol (50%) at an IC50 concentration, and cultured for 24 hours. After the medium was removed, the experimental groups and the control were treated with a 3-4,5 dimethylthiazol-2,5 diphenyltetrazolium bromide (MTT) reagent, and then cultured for 4 hours. Then, the medium was removed, and the experimental groups and the control were treated with a DMSO reagent, and measured for absorbance at a wavelength of 570 nm using a multi-microplate reader (Thermo scientific). Also, the cell viability was calculated using Equation 1.

HepG2 cells [4] = experiment: Inhibition of formation of oxidatively damaged adducts caused by nicotine (DCFH-DA assay); conditions: 50, 100, 250 μM (mixture 50, 100 μM) 2 h, then nicotine at IC50 24 h
From the text: When non-polar, uncharged DCFH-DA easily enters the cytoplasm through cell membranes, DCFH-DA is converted into 2′,7′-dichlorofluorescin (DCFH) showing no fluorescence by an intracellular enzyme, esterase, and DCFH is then oxidized into 2′,7′-dichlorofluorescein (DCF) showing fluorescence by various active oxygen produced in the cells. Since the measured fluorescence intensity is in proportion to a degree of intracellular oxidation, an effect of the index materials on oxidative damage of liver cells by nicotine was evaluated using the principle.
as §1, with “nicotine” for “ethanol”, “Trypsin-EDTA” for “Then, trypsin-EDTA”

Structure (SMILES)	relative DCF fluorescence intensity (oxidatively damaged adducts by alcohol) vs alcohol-only control (HepG2 cells [1])	cotinine conversion rate vs nicotine-only control (HepG2 cells [2])	absorbance (MTT, cell viability) vs alcohol-only control (HepG2 cells [3])	relative DCF fluorescence intensity (oxidatively damaged adducts by nicotine) vs nicotine-only control (HepG2 cells [4])
Oc1cc(O)cc(/C=C/c2ccc(O)cc2O)c1 [oxyresveratrol]	relative DCF fluorescence intensity tended to decrease	cotinine conversion rate increased	absorbance increased as the concentration of the index material increased	relative DCF fluorescence intensity tended to decrease
Oc1ccc(C=Cc2cc(O)cc(O)c2)cc1 [resveratrol]		cotinine conversion rate increased	absorbance increased as the concentration of the index material increased	
